According to patent US9120768B2, “Compositions and methods for treatment of cystic fibrosis and diseases associated with aberrant protein cellular processing” (The Hospital for Sick Children, priority 2010, dated 2015):

Legend:
TAK1 = TAK1 (Homo sapiens, UniProt O43318); conditions: competitive with ATP; cited from earlier work
ERK2 = ERK2 (Homo sapiens, UniProt P28482); conditions: cited from earlier work
inflammation = conditions: animal model, topical application; cited from earlier work
delF508-CFTR [1] = target: T1, delF508-CFTR (Homo sapiens, UniProt P13569, DEL508-508); experiment: Cellomics YFP quenching assay; assay type: cell-based; set-up: expressed in transfected cells; host or cells: HEK293 MSR GripTite (293MSR-GT) cells, also stably expressing eYFP(H148Q/I152L); conditions: 10 μM, 48 hrs, 37° C., 293MSR-GT cells, stimulated with FIG; FIG. 1
T1 sequence (P13569 with tags, fused parts or gaps DEL508-508): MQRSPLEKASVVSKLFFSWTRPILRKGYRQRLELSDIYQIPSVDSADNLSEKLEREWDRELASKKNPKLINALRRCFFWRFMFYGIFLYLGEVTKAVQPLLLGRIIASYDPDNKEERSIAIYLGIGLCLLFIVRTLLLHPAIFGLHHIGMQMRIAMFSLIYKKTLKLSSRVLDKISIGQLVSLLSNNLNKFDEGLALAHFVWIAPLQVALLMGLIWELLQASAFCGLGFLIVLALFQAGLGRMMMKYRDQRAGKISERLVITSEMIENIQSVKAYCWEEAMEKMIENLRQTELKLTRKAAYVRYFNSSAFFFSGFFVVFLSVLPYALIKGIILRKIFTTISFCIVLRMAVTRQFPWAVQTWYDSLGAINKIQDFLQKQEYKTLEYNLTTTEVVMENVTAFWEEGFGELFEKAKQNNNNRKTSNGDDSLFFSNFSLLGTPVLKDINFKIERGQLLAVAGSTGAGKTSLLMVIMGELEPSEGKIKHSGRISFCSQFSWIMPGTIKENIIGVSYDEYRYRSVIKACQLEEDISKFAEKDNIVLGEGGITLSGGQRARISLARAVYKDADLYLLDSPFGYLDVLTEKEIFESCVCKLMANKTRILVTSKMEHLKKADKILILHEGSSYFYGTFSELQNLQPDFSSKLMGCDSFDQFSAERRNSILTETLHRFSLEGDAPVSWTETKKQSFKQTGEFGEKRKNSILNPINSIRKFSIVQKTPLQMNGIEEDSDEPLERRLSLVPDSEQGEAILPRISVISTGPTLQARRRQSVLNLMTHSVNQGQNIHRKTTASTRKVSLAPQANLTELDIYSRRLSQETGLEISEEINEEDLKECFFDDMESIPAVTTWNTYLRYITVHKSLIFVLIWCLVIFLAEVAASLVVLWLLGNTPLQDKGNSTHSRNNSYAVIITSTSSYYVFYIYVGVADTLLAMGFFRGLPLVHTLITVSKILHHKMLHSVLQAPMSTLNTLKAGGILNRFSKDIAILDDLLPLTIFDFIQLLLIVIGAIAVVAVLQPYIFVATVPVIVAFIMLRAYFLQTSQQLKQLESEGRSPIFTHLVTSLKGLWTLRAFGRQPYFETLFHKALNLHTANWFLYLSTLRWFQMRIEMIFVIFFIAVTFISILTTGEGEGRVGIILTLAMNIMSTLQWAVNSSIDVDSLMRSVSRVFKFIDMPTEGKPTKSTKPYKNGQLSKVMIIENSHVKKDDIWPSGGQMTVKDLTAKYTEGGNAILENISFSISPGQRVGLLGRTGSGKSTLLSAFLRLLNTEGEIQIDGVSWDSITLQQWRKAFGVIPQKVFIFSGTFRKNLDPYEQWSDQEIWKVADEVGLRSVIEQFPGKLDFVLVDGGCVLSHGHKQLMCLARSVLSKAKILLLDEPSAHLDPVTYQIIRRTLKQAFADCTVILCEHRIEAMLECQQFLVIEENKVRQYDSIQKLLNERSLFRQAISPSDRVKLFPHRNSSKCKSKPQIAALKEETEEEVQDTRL

delF508-CFTR [2] = target: T1, delF508-CFTR; experiment: Immunoblotting for delF508-CFTR maturation (band C); assay type: cell-based; set-up: expressed in transfected cells; host or cells: HEK293 MSR GripTite (293MSR-GT) cells, also stably expressing eYFP(H148Q/I152L); conditions: 10 μM, 48 hrs, 37° C., 293MSR-GT cells, anti-CFTR immunoblot; FIG. 2
delF508-CFTR [3] = target: T1, delF508-CFTR; experiment: Short circuit current (Ussing chamber) in primary human bronchial epithelial cells; assay type: cell-based; set-up: primary cultures of human bronchial epithelia (HBE) obtained from transplant patients homozygous for the delF508 mutation; host or cells: primary human bronchial epithelial (HBE) cells from delF508/delF508 lung transplant patients; conditions: 10 μM, 48 hrs, HBE cells of delF508/delF508 patients, versus vehicle alone; FIGS. 5-7
293MSR-GT cells = experiment: Sensitivity of 293MSR-GT cells toward compound; conditions: compound could not be tested by YFP quenching or immunoblotting

Chain of TAK1 (O43318 whole entry): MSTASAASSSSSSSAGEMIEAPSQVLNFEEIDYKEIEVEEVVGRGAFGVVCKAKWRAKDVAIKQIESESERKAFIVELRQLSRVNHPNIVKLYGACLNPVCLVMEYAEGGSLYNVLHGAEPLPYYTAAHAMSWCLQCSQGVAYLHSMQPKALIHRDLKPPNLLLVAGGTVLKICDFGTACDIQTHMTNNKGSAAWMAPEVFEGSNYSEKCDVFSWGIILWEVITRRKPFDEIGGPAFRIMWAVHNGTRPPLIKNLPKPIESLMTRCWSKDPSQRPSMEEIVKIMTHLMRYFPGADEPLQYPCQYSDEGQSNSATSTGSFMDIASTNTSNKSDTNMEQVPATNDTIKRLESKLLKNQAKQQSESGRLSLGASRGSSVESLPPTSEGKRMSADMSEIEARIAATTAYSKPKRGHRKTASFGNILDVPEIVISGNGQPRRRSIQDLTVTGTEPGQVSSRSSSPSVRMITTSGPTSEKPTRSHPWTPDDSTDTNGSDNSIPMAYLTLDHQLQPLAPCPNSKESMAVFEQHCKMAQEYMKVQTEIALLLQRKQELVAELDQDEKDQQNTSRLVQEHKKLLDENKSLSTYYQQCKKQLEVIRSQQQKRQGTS
Chain of TAK1 (Q15750 whole entry partner): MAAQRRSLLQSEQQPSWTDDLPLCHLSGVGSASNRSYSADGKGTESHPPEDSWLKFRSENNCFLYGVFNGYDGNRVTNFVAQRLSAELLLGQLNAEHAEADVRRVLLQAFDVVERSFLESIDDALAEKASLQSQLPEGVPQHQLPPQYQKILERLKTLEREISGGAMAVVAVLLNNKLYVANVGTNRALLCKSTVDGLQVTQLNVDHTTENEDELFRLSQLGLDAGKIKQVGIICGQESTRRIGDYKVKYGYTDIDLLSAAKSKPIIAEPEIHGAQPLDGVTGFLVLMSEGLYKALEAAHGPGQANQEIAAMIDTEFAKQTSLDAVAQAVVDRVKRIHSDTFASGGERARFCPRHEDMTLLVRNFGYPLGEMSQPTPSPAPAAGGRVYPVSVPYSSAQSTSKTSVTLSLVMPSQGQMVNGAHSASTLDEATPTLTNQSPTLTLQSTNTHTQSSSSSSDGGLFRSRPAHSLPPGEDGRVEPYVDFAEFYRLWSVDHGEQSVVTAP
Chain of ERK2 (P28482 whole entry, species assumed): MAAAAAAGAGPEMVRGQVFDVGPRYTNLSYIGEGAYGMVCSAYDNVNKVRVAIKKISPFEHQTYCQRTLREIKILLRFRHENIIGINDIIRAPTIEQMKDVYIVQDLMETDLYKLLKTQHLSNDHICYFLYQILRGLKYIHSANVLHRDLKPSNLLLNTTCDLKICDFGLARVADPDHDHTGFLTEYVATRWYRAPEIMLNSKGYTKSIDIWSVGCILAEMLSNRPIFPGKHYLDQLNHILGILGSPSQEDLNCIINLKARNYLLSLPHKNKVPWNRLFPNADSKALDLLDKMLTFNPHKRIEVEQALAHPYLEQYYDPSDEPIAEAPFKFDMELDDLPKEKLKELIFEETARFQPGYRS

delF508-CFTR chloride channel activity (short-circuit current) (delF508-CFTR [3])	sensitivity of 293MSR-GT cells toward compound (293MSR-GT cells)	Compound	TAK1 inhibition (TAK1)	ERK2 enzyme activity inhibition (ERK2)	prevention of inflammation (inflammation)	delF508-CFTR activity (fluorescence quenching due to Cl-/I- exchange) (delF508-CFTR [1])	appearance of mature delF508-CFTR protein (band C) (delF508-CFTR [2])
enhanced activity of the mutant CFTR		COc1cc(O)c2c(c1)/C=C/C[C@H](O)[C@H](O)C(=O)/C=C\C[C@H](C)OC2=O [(5Z)-7-oxozeaenol, (3S,5Z,8S,9S,11E)-3,4,9,10-tetrahydro-8,9,16-trihydroxy-14-methoxy-3-methyl-1H-2-benzoxacyclotetradecin-1,7(8H)-dione]	irreversibly inhibits TAK1	inhibit ERK2 enzyme activity	effectively prevent inflammation in an animal model	restores delF508-CFTR activity to a level that is similar to that obtained with corr-4-a	led to the appearance of the mature band C, similar to that seen with corr-4-a
enhanced activity of the mutant CFTR		Cc1c[nH]c(/C=C2\C(=O)Nc3ccccc32)c1CCC(=O)O [SU5402, 3-[4-methyl-2-[(Z)-(2-oxo-1H-indol-3-ylidene)methyl]-1H-pyrrol-3-yl]propanoic acid]				restores delF508-CFTR activity to a level that is similar to that obtained with corr-4-a	led to the appearance of the mature band C, similar to that seen with corr-4-a
enhanced activity of the mutant CFTR	increased sensitivity	Cc1[nH]c(/C=C2\C(=O)Nc3ccccc32)c(C)c1CCC(=O)O [SU6668, 3-[2,4-dimethyl-5-[(Z)-(2-oxo-1H-indol-3-ylidene)methyl]-1H-pyrrol-3-yl]propanoic acid]					
